Data from patent US9567339B2, “Primary carboxamides as BTK inhibitors” (AbbVie Inc., priority 2013, dated 2017).

Target: BTK, recombinant human catalytic domain (aa 393-659) (Homo sapiens (Human), UniProt Q06187)
Assay: In vitro BTK kinase activity measured by time-resolved fluorescence resonance energy transfer (trFRET)
Format: biochemical
Conditions: read-out: Btk IC50

Chain of BTK, recombinant human catalytic domain (aa 393-659) (Q06187 393-659): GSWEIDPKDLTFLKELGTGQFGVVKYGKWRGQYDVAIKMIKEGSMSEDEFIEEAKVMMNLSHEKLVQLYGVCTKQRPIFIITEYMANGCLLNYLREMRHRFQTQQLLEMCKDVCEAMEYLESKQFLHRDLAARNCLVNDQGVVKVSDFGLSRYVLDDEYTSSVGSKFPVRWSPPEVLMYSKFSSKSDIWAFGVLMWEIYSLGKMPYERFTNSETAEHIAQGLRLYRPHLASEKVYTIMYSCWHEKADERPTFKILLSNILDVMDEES

IC50	SMILES
< 0.1 µM	Cc1c(-c2ccc(C(N)=O)c3[nH]c(C4=CCN(C)CC4)cc23)cccc1-n1cnc2ccccc2c1=O [H.1.1]
< 0.1 µM	Cc1c(NCc2nccs2)cccc1-c1ccc(C(N)=O)c2[nH]c(C3=CCN(S(C)(=O)=O)CC3)cc12 [H.2.1, 4-(2-methyl-3-(thiazol-2-ylmethylamino)phenyl)-2-(1-(methylsulfonyl)-1,2,3,6-tetrahydropyridin-4-yl)-1H-indole-7-carboxamide]
< 0.1 µM	Cn1cc(-c2cc3c(-c4cccc(-n5cnc6ccc(F)cc6c5=O)c4CO)ccc(C(N)=O)c3[nH]2)cn1 [M.1.1]
< 0.1 µM	Cc1c(-c2ccc(C(N)=O)c3[nH]c(-c4cnn(CCO)c4)cc23)cccc1-n1cnc2ccccc2c1=O [M.1.2]
1 to 10 µM	Cc1c(NC2COC2)cccc1-c1ccc(C(N)=O)c2[nH]ccc12 [O.1.2]
0.1 to 1 µM	NC(=O)c1ccc(N2CCC[C@@H](n3cnc4ccccc4c3=O)C2)c2cc(-c3ccc(F)cc3)[nH]c12 [O.1.14*]
1 to 10 µM	NC(=O)c1ccc(N2CCC[C@@H](n3cnc4ccc(F)cc4c3=O)C2)c2cc(-c3ccc(F)cc3)[nH]c12 [O.1.15*]
0.1 to 1 µM	Cn1cc(-c2cc3c(N4CCC[C@@H](n5cnc6ccccc6c5=O)C4)ccc(C(N)=O)c3[nH]2)cn1 [O.1.16*]
< 0.1 µM	Cn1cc(-c2cc3c(N4CCC[C@@H](NC(=O)c5ccc(C(C)(C)C)cc5)C4)ccc(C(N)=O)c3[nH]2)cn1 [O.1.19*]
0.1 to 1 µM	COc1ccc(C(=O)N[C@@H]2CCCN(c3ccc(C(N)=O)c4[nH]c(-c5cnn(C)c5)cc34)C2)cc1 [O.1.20*]
0.1 to 1 µM	Cn1cc(-c2cc3c(N4CCC[C@@H](NC(=O)c5ccc(C(F)(F)F)cc5)C4)ccc(C(N)=O)c3[nH]2)cn1 [O.1.21*]
0.1 to 1 µM	Cn1cc(-c2cc3c(N4CCC[C@@H](NC(=O)c5ccc(C(F)F)cc5)C4)ccc(C(N)=O)c3[nH]2)cn1 [O.1.22*]
0.1 to 1 µM	Cn1cc(-c2cc3c(N4CCC[C@@H](NC(=O)c5ccc(C(C)(C)C(N)=O)cc5)C4)ccc(C(N)=O)c3[nH]2)cn1 [O.1.23*]
0.1 to 1 µM	Cn1cc(-c2cc3c(N4CCC[C@@H](NC(=O)c5ccc(OC(F)(F)F)cc5)C4)ccc(C(N)=O)c3[nH]2)cn1 [O.1.24*]
< 0.1 µM	Cn1cc(-c2cc3c(N4CCC[C@@H](NC(=O)c5ccc(C6CC6)cc5)C4)ccc(C(N)=O)c3[nH]2)cn1 [O.1.25*]
< 0.1 µM	CC(C)(C)c1ccc(C(=O)N[C@@H]2CCCN(c3ccc(C(N)=O)c4[nH]c(-c5cccnc5)cc34)C2)cc1 [O.1.26]
1 to 10 µM	Cc1ccc(-c2cc3c(Cc4c(Cl)cccc4Cl)ccc(C(N)=O)c3[nH]2)cc1 [U.1.1]
< 0.1 µM	Cc1ccc(-c2cc3c(-c4nccs4)ccc(C(N)=O)c3[nH]2)cc1 [U.1.2]
0.1 to 1 µM	Cc1ccc(-c2cc3c(-c4ccccn4)ccc(C(N)=O)c3[nH]2)cc1 [U.1.3]

More lines, now with the values behind:

SMILES	IC50
Cc1c(NC(=O)/C=C/CN2CCCCC2)cccc1-c1ccc(C(N)=O)c2[nH]ccc12 [J.1.1]	0.1 to 1 µM
COCCNC/C=C/C(=O)Nc1cccc(-c2ccc(C(N)=O)c3[nH]ccc23)c1C [J.1.3]	1 to 10 µM
Cc1c(NC(=O)/C=C/CNC2CC2)cccc1-c1ccc(C(N)=O)c2[nH]ccc12 [J.1.4]	0.1 to 1 µM
Cc1c(NC(=O)/C=C/CN2CCOCC2)cccc1-c1ccc(C(N)=O)c2[nH]ccc12 [J.1.5]	1 to 10 µM
Cc1c(NC(=O)/C=C/CN2CCN(C)CC2)cccc1-c1ccc(C(N)=O)c2[nH]ccc12 [J.1.6]	1 to 10 µM
Cc1c(NC(=O)/C=C/CN(C)C)cccc1-c1cnc(C(N)=O)c2[nH]ccc12 [J.2.1]	0.1 to 1 µM
Cc1cc2c(N(C)C3CN(C#N)C3)ccc(C(N)=O)c2[nH]1 [J.3.1]	0.1 to 1 µM
Cc1c(-c2ccc(C(N)=O)c3[nH]c(-c4cnn(C[C@H](O)CO)c4)cc23)cccc1-n1cnc2ccccc2c1=O [K.1.1]	< 0.1 µM
Cc1c(NC(=O)c2ccc(C(F)F)cc2)cccc1-c1ccc(C(N)=O)c2[nH]ccc12 [O.1.1]	0.1 to 1 µM
CS(=O)(=O)N1CC=C(c2cc3c(N4CCC[C@@H](N5CCn6ccnc6C5=O)C4)ccc(C(N)=O)c3[nH]2)CC1 [O.1.3*]	< 0.1 µM
CS(=O)(=O)N1CC=C(c2cc3c(N4CCC[C@@H](n5ccn6ccnc6c5=O)C4)ccc(C(N)=O)c3[nH]2)CC1 [O.1.4*]	< 0.1 µM
Cc1nc(C(=O)NC2CCCN(c3ccc(C(N)=O)c4[nH]c(C5=CCN(S(C)(=O)=O)CC5)cc34)C2)co1 (centres unmarked) [O.1.5*]	< 0.1 µM
NC(=O)c1ccc(N2CCC[C@@H](NC(=O)Nc3nccs3)C2)c2cc[nH]c12 [O.1.7*]	1 to 10 µM
NC(=O)c1ccc(N2CCC[C@@H](NC(=O)c3ccc(C(F)(F)F)cc3)C2)c2cc[nH]c12 [O.1.8*]	1 to 10 µM
COc1ccc(C(=O)N[C@@H]2CCCN(c3ccc(C(N)=O)c4[nH]ccc34)C2)cc1 [O.1.9*]	1 to 10 µM
CC(C)(C)c1cc(C(=O)N[C@@H]2CCCN(c3ccc(C(N)=O)c4[nH]ccc34)C2)no1 [O.1.10*]	1 to 10 µM
CC(C)(C)c1ccc(C(=O)N[C@@H]2CCCN(c3ccc(C(N)=O)c4[nH]ccc34)C2)cc1 [O.1.11*]	1 to 10 µM
NC(=O)c1ccc(N2CCC[C@@H](n3cnc4ccccc4c3=O)C2)c2cc[nH]c12 [O.1.12*]	1 to 10 µM
NC(=O)c1ccc(N2CCCC(n3cnc4cc(C5CC5)cc(F)c4c3=O)C2)c2cc[nH]c12 (centres unmarked) [O.1.13]	1 to 10 µM
Cn1cc(-c2cc3c(N4CCC[C@@H](N5Cc6ccc(F)cc6C5=O)C4)ccc(C(N)=O)c3[nH]2)cn1 [O.1.18*]	1 to 10 µM
NC(=O)c1ccc(N2CCC[C@@H](n3cnc4ccccc4c3=O)C2)c2cc(-c3cccnc3)[nH]c12 [O.1.27*]	0.1 to 1 µM

Same assay, conditions: trFRET, 0.001 mM ATP, biotin-TYR1 peptide substrate; read-out: Btk IC50

IC50	SMILES
< 0.1 µM	Cc1c(-c2ccc(C(N)=O)c3[nH]c(C4=CCN(C)C4)cc23)cccc1-n1cnc2ccccc2c1=O [H.1, 2-(1-Methyl-2,5-dihydro-1H-pyrrol-3-yl)-4-(2-methyl-3-(4-oxoquinazolin-3(4H)-yl)phenyl)-1H-indole-7-carboxamide]
< 0.1 µM	Cn1cc(-c2cc3c(-c4cccc(NC(=O)c5nccs5)c4CO)ccc(C(N)=O)c3[nH]2)cn1 [M.1, N-(3-(7-carbamoyl-2-(1-methyl-1H-pyrazol-4-yl)-1H-indol-4-yl)-2-(hydroxymethyl)phenyl)thiazole-2-carboxamide]
0.1 to 1 µM	Cc1ccc(-c2cc3c(Nc4ccnn4C)ccc(C(N)=O)c3[nH]2)cc1 [Preparation #T.1, 4-(1-Methyl-1H-pyrazol-5-ylamino)-2-p-tolyl-1H-indole-7-carboxamide]

Further lines, the compound ahead of its results:

SMILES	IC50
C=CS(=O)(=O)Nc1cccc(-c2ccc(C(N)=O)c3[nH]ccc23)c1 [I.1, 4-(3-(Vinylsulfonamido)phenyl)-1H-indole-7-carboxamide]	< 0.1 µM
Cc1c(NC(=O)/C=C/CN(C)C)cccc1-c1ccc(C(N)=O)c2[nH]ccc12 [J.1, (E)-4-(3-(4-(Dimethylamino)but-2-enamido)-2-methylphenyl)-1H-indole-7-carboxamide]	0.1 to 1 µM
Cc1c(-c2ccc(C(N)=O)c3[nH]c(-c4cnn(C[C@@H](O)CO)c4)cc23)cccc1-n1cnc2ccccc2c1=O [K.1]	< 0.1 µM
CC(=O)N1CCC(c2cc3c(-c4cccc(N)c4C)ccc(C(N)=O)c3[nH]2)CC1 [L.1, 2-(1-Acetylpiperidin-4-yl)-4-(3-amino-2-methylphenyl)-1H-indole-7-carboxamide]	0.1 to 1 µM
